Data as given in patent US5652353A, “DNAs encoding tumor necrosis factor-α muteins” (priority 1990, dated 1997).

Test system: human p75-TNF-R versus human p55-TNF-R
Assay: Selectivity factor S from competitive binding to p75-TNF-R and p55-TNF-R
Conditions: based on IC50 p75-TNF-R and IC50 p55-TNF-R (Table F, FIGS. 10A-10E)
Description: The filters were blocked with blocking buffer (50 mM Tris, 140 mM NaCl, 5 mM EDTA, 0.02% NaN3, 1% defatted milk powder) for 1.5 hours at room temperature. […] The filters were washed with blocking buffer (2× for 5 min.) and with H2 O (1× for 5 min.), air dried, and counted in a γ-counter.
After three hours at room temperature the wells were thoroughly washed with PBS and counted in a γ-counter.

Tyr^32 -TNFα: TNF-α mutein with tyrosine substituted at position 32, SEQ ID No: 10
selectivity factor S: 90

Tyr^29 -TNFα: TNF-α mutein with tyrosine substituted at position 29, SEQ ID No: 6
selectivity factor S: 110
